According to patent US7803816B2, “MCH receptor antagonists” (Hoffmann-La Roche Inc., priority 2005, dated 2010):
Where a name gives a salt, the structure may show the parent alone.

target: T1, recombinant human MCHR1-receptors (Homo sapiens, UniProt Q99705); experiment: MCHR filter binding assay (competition binding); settings: membranes from CHO-K1 cells expressing human MCHR1; 0.2 nM [Phe13,[125I]Tyr19]-MCH; read-out: IC50 (nM), in vitro activity (binding assay)
T1 construct: expressed in transfected cells
T1 sequence (Q99705 whole entry): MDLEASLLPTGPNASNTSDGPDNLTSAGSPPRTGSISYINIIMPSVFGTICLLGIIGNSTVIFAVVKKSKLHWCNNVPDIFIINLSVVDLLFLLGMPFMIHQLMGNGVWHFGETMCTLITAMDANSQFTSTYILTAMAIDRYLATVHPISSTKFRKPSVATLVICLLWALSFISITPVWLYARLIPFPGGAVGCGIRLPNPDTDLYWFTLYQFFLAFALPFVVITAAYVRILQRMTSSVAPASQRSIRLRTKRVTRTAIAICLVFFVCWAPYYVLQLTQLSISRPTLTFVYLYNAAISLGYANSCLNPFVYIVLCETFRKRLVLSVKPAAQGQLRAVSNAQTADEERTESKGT
How it was run: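 Membranes from CHO-K1 cells stably expressing human MCHR1 (2.8 μg) preincubated 15 min with competitor, then 1 h at rt with 0.2 nM [Phe13,[125I]Tyr19]-MCH in HEPES/CaCl2/BSA/phenanthroline/Triton buffer. Bound radioactivity counted after rapid filtration over PVP/BSA-treated GF/B filters.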

First: COC1CN(C[C@@H]2Cc3ccc(NC(=O)C(C)C)cc3C2)CCC1n1c(C(C)C)nc2cc(C)ccc21 (stereo partly drawn) [Example 68, N-{(R)-2-[4-(2-Isopropyl-5-methyl-benzoimidazol-1-yl)-3-methoxy-piperidin-1-ylmethyl]-indan-5-yl}-isobutyramide]
Second: Cc1ccc2c(c1)nc(C(C)C)n2[C@@H]1CCN(C[C@@H]2Cc3ccc(NC(=O)C(C)C)cc3C2)C[C@H]1O [Example 86, N-{(R)-2-[(3R,4R)-3-Hydroxy-4-(2-isopropyl-5-methyl-benzoimidazol-1-yl)-piperidin-1-ylmethyl]-indan-5-yl}-isobutyramide]
The IC50 of the first is lower: less than 20 nM for the first, 20 to 200 nM for the second.

First: CCC(=O)Nc1ccc2c(c1)C[C@H](CN1CCC(n3c(CC)nc4cc(C)ccc43)C(OC)C1)C2 (stereo partly drawn) [Example 69, N-{(R)-2-[4-(2-Ethyl-5-methyl-benzoimidazol-1-yl)-3-methoxy-piperidin-1-ylmethyl]-indan-5-yl}-propionamide]
Second: Cc1ccc2c(c1)nc(C)n2[C@@H]1CCN(C[C@H]2Cc3ccc(NC(=O)C(C)C)cc3C2)C[C@H]1O [Example 9, N-{(S)-2-[(3R,4R)-4-(2,5-Dimethyl-benzoimidazol-1-yl)-3-hydroxy-piperidin-1-ylmethyl]-indan-5-yl}-isobutyramide; trifluoroacetic acid salt]
The IC50 of the first is lower: less than 20 nM for the first, 20 to 200 nM for the second. The first is the more potent here.

Compared with Cc1ccc2c(c1)nc(C)n2C1CCN(CC2=Cc3cc(NC(=O)C(C)C)ccc3C2)CC1 [Example 54, N-{2-[4-(2,5-Dimethyl-benzoimidazol-1-yl)-piperidin-1-ylmethyl]-1H-inden-5-yl}-isobutyramide], Cc1ccc2c(c1)nc(C(C)(C)O)n2[C@@H]1CCN(C[C@H]2Cc3ccc(Br)cc3C2)CC1O (stereo in doubt) [Example 122, (3R,4R)-1-((S)-5-Bromo-indan-2-ylmethyl)-4-[2-(1-hydroxy-1-methyl-ethyl)-5-methyl-benzoimidazol-1-yl]-piperidin-3-ol] is lower in IC50: 200 to 5000 nM for the first, less than 20 nM for the second.

First: Cc1ccc2c(c1)nc(C)n2C1CCN(C[C@@H]2Cc3ccc(NC(=O)C(C)C)cc3C2)CC1O (stereo partly drawn) [Example 27, N-{(R)-2-[4-(2,5-Dimethyl-benzoimidazol-1-yl)-3-hydroxy-piperidin-1-ylmethyl]-indan-5-yl}-isobutyramide; dihydrochloride]
Second: COC(=O)Nc1ccc2c(c1)C[C@H](CN1CCC(n3c(C(C)(C)O)nc4cc(C)ccc43)CC1)C2 [Example 6, ((R)-2-{4-[2-(1-Hydroxy-1-methyl-ethyl)-5-methyl-benzoimidazol-1-yl]-piperidin-1-ylmethyl}-indan-5-yl)-carbamic acid methyl ester]
The IC50 of the first is higher: 200 to 5000 nM for the first, 20 to 200 nM for the second. The second is the more potent here.

First: CO[C@@H]1CN(CC2Cc3ccc(Br)cc3C2)CC[C@H]1n1c(C(C)(C)O)nc2cc(C)ccc21 (stereo in doubt) [Example 11, 2-{1-[(3R,4R)-1-((S)-5-Bromo-indan-2-ylmethyl)-3-methoxy-piperidin-4-yl]-5-methyl-1H-benzoimidazol-2-yl}-propan-2-ol]
Second: {(R)-2-[4-(2-tert-Butyl-5-methyl-benzoimidazol-1-yl)-piperidin-1-ylmethyl]-indan-5-yl}-methyl-amine [Example 56]
The IC50 of the first is lower: less than 20 nM for the first, 200 to 5000 nM for the second. The first is the more potent here.

CCC(=O)Nc1ccc2c(c1)C[C@H](CN1CC[C@@H](n3c(C)nc4cc(F)ccc43)[C@H](OC)C1)C2 [Example 25, N-{(R)-2-[(3R,4R)-4-(5-Fluoro-2-methyl-benzoimidazol-1-yl)-3-methoxy-piperidin-1-ylmethyl]-indan-5-yl}-propionamide; dihydrochloride] and CO[C@H]1CN(C[C@H]2Cc3ccc(Br)cc3C2)CC[C@@H]1n1c(C)nc2cc(C)ccc21 [Example 91, 1-[(3S,4S)-1-((S)-5-Bromo-indan-2-ylmethyl)-3-methoxy-piperidin-4-yl]-2,5-dimethyl-1H-benzoimidazole; dihydrochloride] fall in the same range of IC50: 20 to 200 nM for the first, 20 to 200 nM for the second.

Compared with COC(=O)Nc1ccc2c(c1)C[C@H](CN1CC[C@@H](n3c(C4CC4)nc4cc(C)ccc43)[C@H](OC)C1)C2 [Example 75, {(R)-2-[(3R,4R)-4-(2-Cyclopropyl-5-methyl-benzoimidazol-1-yl)-3-methoxy-piperidin-1-ylmethyl]-indan-5-yl}-carbamic acid methyl ester], Cc1ccc2c(c1)nc(C(C)(C)O)n2C1CCN(C[C@H]2Cc3ccc(Br)cc3C2)CC1 [Example 99, 2-{1-[1-((S)-5-Bromo-indan-2-ylmethyl)-piperidin-4-yl]-5-methyl-1H-benzoimidazol-2-yl}-propan-2-ol] is lower in IC50: 20 to 200 nM for the first, less than 20 nM for the second.

Cc1ccc2c(c1)nc(C(C)(C)C)n2C1CCN(C[C@@H]2Cc3ccc(NC(=O)C(C)C)cc3C2)CC1 [Example 41, N-{(R)-2-[4-(2-tert-Butyl-5-methyl-benzoimidazol-1-yl)-piperidin-1-ylmethyl]-indan-5-yl}-isobutyramide] and CO[C@H]1CN(C[C@@H]2Cc3ccc(NC(=O)C(C)C)cc3C2)CC[C@@H]1n1c(C2CC2)nc2cc(C)ccc21 [Example 65, N-{(R)-2-[(3S,4S)-4-(2-Cyclopropyl-5-methyl-benzoimidazol-1-yl)-3-methoxy-piperidin-1-ylmethyl]-indan-5-yl}-isobutyramide] cannot be ordered by IC50: less than 20 nM for the first, less than 20 nM for the second.
